Source: patent US9302991B2, “Arylamide derivatives as TTX-S blockers” (RaQualia Pharma Inc., priority 2010, dated 2016)

What follows are compounds tested against T1, human Nav1.7 channels (Homo sapiens, UniProt Q15858) (assay: FRET assay, human Nav1.7 (EFS on FDSS)). Conditions: CHO cells expressing human Nav1.7, read-out: IC50 against Nav1.7.
T1 construct: expressed in transfected cells; host or cells: CHO
Assay type: cell-based
Procedure, shortened: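 IC50 was derived from normalized 440 nm fluorescence ratios of the EFS-evoked membrane-potential response read on FDSS. Recombinant CHO cells were sequentially dye-loaded with coumarin/oxonol FRET pair at room temperature in pH 7.4 buffer before compound addition.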

T1 sequence (Q15858 whole entry): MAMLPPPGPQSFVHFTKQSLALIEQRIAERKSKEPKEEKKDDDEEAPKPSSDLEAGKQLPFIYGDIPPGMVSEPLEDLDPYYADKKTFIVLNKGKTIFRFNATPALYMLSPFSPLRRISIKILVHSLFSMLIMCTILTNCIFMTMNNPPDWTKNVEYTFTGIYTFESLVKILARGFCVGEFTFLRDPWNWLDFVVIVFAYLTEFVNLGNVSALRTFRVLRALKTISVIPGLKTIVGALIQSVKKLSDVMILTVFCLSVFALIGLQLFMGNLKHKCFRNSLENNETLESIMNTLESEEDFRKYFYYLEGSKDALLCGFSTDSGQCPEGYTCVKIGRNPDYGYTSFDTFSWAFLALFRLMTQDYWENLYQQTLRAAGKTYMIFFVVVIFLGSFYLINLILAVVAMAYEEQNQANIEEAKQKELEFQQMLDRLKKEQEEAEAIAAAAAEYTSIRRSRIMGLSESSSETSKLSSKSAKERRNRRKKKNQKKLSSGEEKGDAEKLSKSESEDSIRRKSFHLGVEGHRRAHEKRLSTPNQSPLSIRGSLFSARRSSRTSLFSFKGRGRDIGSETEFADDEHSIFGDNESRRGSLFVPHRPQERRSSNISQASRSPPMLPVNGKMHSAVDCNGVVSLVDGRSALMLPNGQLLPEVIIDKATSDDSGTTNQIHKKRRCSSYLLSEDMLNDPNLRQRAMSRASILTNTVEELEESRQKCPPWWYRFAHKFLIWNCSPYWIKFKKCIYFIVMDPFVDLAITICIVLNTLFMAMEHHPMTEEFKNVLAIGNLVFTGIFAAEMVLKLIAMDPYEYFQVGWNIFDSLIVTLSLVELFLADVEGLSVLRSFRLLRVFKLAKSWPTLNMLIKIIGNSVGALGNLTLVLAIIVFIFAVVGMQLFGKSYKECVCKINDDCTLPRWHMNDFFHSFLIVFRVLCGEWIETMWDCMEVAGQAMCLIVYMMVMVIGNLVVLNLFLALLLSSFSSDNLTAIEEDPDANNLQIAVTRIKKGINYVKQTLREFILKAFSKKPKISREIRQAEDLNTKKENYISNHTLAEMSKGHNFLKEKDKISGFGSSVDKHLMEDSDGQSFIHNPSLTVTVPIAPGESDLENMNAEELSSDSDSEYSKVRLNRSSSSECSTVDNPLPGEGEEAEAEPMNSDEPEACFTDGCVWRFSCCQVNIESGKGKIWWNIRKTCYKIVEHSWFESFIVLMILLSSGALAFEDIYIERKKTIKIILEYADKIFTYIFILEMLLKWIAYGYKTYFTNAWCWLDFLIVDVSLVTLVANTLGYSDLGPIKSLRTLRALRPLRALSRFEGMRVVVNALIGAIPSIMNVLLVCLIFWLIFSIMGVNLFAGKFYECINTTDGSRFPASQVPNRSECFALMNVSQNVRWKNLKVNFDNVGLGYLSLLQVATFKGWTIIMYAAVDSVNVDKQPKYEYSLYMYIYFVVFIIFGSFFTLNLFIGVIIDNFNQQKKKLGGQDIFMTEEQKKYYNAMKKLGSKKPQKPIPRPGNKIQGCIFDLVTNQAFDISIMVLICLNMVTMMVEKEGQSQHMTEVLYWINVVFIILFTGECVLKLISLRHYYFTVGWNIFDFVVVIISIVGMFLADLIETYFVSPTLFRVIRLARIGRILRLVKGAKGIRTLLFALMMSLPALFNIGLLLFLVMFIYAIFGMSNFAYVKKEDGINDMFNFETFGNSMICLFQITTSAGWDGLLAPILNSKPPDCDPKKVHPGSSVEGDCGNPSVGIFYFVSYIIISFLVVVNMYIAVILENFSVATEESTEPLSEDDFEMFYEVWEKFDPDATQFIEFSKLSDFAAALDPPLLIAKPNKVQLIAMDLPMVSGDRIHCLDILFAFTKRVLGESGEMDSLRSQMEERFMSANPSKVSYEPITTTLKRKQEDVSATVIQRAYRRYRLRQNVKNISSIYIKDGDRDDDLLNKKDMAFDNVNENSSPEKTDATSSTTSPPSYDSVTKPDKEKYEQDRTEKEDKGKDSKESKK

IC50, < 1000 nM:
CC(C)C(=O)Nc1cc(C(=O)NC(C)c2ccc(OCC(C)(F)F)nc2)ccn1 (single isomer, unassigned) [Example 785, N-(1-(6-(2,2-difluoropropoxy)pyridin-3-yl)ethyl)-2-isobutyramidoisonicotinamide]
Cc1cc(C(=O)NCc2ccc(OCC(F)F)cc2Cl)cc(NC(=O)C(C)C)n1 [Example 1049, N-(2-chloro-4-(2,2-difluoroethoxy)benzyl)-2-isobutyramido-6-methylisonicotinamide]
CCC(=O)Nc1cc(C(=O)NCc2ccc(OCC(F)F)c(Cl)c2)ccn1 [Example 998, N-(3-chloro-4-(2,2-difluoroethoxy)benzyl)-2-propionamidoisonicotinamide]
COc1nc(OCC(F)F)ccc1CNC(=O)c1ccnc(NC(=O)C(C)C)c1 [Example 1154, N-((6-(2,2-difluoroethoxy)-2-methoxypyridin-3-yl)methyl)-2-isobutyramidoisonicotinamide]
COc1nc(OCC(F)F)ccc1CNC(=O)c1ccnc(NC(=O)C2CC2)c1 [Example 1153, 2-(cyclopropanecarboxamido)-N-((6-(2,2-difluoroethoxy)-2-methoxypyridin-3-yl)methyl)isonicotinamide]
COc1cc(OC(F)(F)F)ccc1CNC(=O)c1ccnc(NC(=O)C(C)C)c1 [Example 869, 2-isobutyramido-N-(2-methoxy-4-(trifluoromethoxy)benzyl)isonicotinamide]
Cc1cc(C(=O)NCc2cnc(OCC(F)(F)F)c(Br)c2)cc(NC(=O)C(C)C)n1 [Example 901, N-((5-bromo-6-(2,2,2-trifluoroethoxy)pyridin-3-yl)methyl)-2-isobutyramido-6-methylisonicotinamide]
CCC(=O)Nc1cc(C(=O)NC(C)c2ccc(OC(F)(F)F)cc2)cc(C)n1 (single isomer, unassigned) [Example 135, 2-methyl-6-propionamido-N-(1-(4-(trifluoromethoxy)phenyl)ethyl)isonicotinamide]
COc1cc(CNC(=O)c2cc(C)nc(NC(C)=O)c2)ccc1OCC(F)(F)F [Example 884, 2-acetamido-N-(3-methoxy-4-(2,2,2-trifluoroethoxy)benzyl)-6-methylisonicotinamide]
O=C(NCc1ccc(OCC(F)(F)F)nc1)c1ccnc(NC(=O)C2CC2)n1 [Example 397, 2-(cyclopropanecarboxamido)-N-((6-(2,2,2-trifluoroethoxy)pyridin-3-yl)methyl)pyrimidine-4-carboxamide]
Cc1cc(C(=O)NCc2cnc(OCC(F)(F)F)c(C)c2)nc(NC(=O)C(C)C)n1 [Example 366, 2-isobutyramido-6-methyl-N-((5-methyl-6-(2,2,2-trifluoroethoxy)pyridin-3-yl)methyl)pyrimidine-4-carboxamide]
COc1cc(CNC(=O)c2cc(C)nc(NC(=O)C3CC3)n2)cnc1OCC(F)(F)F [Example 442, 2-(cyclopropanecarboxamido)-N-((5-methoxy-6-(2,2,2-trifluoroethoxy)pyridin-3-yl)methyl)-6-methylpyrimidine-4-carboxamide]
CC(=O)Nc1cc(C(=O)NCc2cnc(OCC(F)F)cc2C)cc(C)n1 [Example 778, 2-acetamido-N-((6-(2,2-difluoroethoxy)-4-methylpyridin-3-yl)methyl)-6-methylisonicotinamide]
CCC(=O)Nc1cc(C(=O)NC(C)c2cnc(OCC(F)(F)F)c(OC)c2)ccn1 (single isomer, unassigned) [Example 142]
CCC(=O)Nc1cc(C(=O)NC(C)c2cnc(OCC(F)(F)F)c(F)c2)cc(C)n1 (single isomer, unassigned) [Example 131, N-(1-(5-fluoro-6-(2,2,2-trifluoroethoxy)pyridin-3-yl)ethyl)-2-methyl-6-propionamidoisonicotinamide]
COc1cc(C(C)NC(=O)c2cc(C)nc(NC(C)=O)c2)cnc1OCC(F)(F)F (single isomer, unassigned) [Example 330, 2-acetamido-N-(1-(5-methoxy-6-(2,2,2-trifluoroethoxy)pyridin-3-yl)ethyl)-6-methylisonicotinamide]
Cc1cc(C(=O)NC(C)c2ccc(OCC(F)(F)C(F)F)nc2)cc(NC(=O)C2CC2)n1 (single isomer, unassigned) [Example 828]
CCC(=O)Nc1cc(C(=O)N(C)Cc2ccc(OCC(F)(F)F)nc2OC)cc(C)n1 [Example 291, N-((2-methoxy-6-(2,2,2-trifluoroethoxy)pyridin-3-yl)methyl)-N,2-dimethyl-6-propionamidoisonicotinamide]
Cc1cc(C(=O)NC(C)c2ccc(OCC(F)(F)F)c(Cl)c2)cc(NC(=O)C(C)C)n1 (single isomer, unassigned) [Example 678, N-(1-(3-chloro-4-(2,2,2-trifluoroethoxy)phenyl)ethyl)-2-isobutyramido-6-methylisonicotinamide]
Cc1cc(C(=O)NC(C)c2cccc(OC(F)(F)F)c2)cc(NC(=O)C2CC2)n1 (single isomer, unassigned) [Example 839, 2-(cyclopropanecarboxamido)-6-methyl-N-(1-(3-(trifluoromethoxy)phenyl)ethyl)isonicotinamide]
CC(=O)Nc1cc(C(=O)NCc2cnc(OCC(F)F)c(C3CC3)c2)cc(C)n1 [Example 1082, 2-acetamido-N-((5-cyclopropyl-6-(2,2-difluoroethoxy)pyridin-3-yl)methyl)-6-methylisonicotinamide]
Cc1cc(C(=O)NC(C)c2cccc(OCC(F)(F)F)c2)cc(NC(=O)C(C)C)n1 (single isomer, unassigned) [Example 881, 2-isobutyramido-6-methyl-N-(1-(3-(2,2,2-trifluoroethoxy)phenyl)ethyl)isonicotinamide]
CCC(=O)Nc1cc(C(=O)NC(C)c2cnc(OCC(F)(F)F)c(OC)c2)cc(C)n1 (single isomer, unassigned) [Example 144, N-(1-(5-methoxy-6-(2,2,2-trifluoroethoxy)pyridin-3-yl)ethyl)-2-methyl-6-propionamidoisonicotinamide]
CC(NC(=O)c1ccnc(NC(=O)C2CC2)n1)c1cnc(OCC(F)(F)F)c(Cl)c1 (single isomer, unassigned) [Example 211, N-(1-(5-chloro-6-(2,2,2-trifluoroethoxy)pyridin-3-yl)ethyl)-2-(cyclopropanecarboxamido)pyrimidine-4-carboxamide]
Cc1cc(C(=O)NCc2ccc(OCCC(F)(F)F)nc2)cc(NC(=O)C(C)C)n1 [Example 490, 2-isobutyramido-6-methyl-N-((6-(3,3,3-trifluoropropoxy)pyridin-3-yl)methyl)isonicotinamide]
Cc1cc(C(=O)NCc2ccc(OCC(F)(F)F)nc2C)cc(NC(=O)C(C)C)n1 [Example 493, 2-isobutyramido-6-methyl-N-((2-methyl-6-(2,2,2-trifluoroethoxy)pyridin-3-yl)methyl)isonicotinamide]
CC(C)C(=O)Nc1cc(C(=O)NC(C)c2cccc(OC(F)(F)F)c2)ccn1 (single isomer, unassigned) [Example 418, 2-isobutyramido-N-(1-(3-(trifluoromethoxy)phenyl)ethyl)isonicotinamide]
CCc1cc(C(C)NC(=O)c2ccnc(NC(=O)C3CC3)n2)cnc1OCC(F)F (single isomer, unassigned) [Example 890, 2-(cyclopropanecarboxamido)-N-(1-(6-(2,2-difluoroethoxy)-5-ethylpyridin-3-yl)ethyl)pyrimidine-4-carboxamide]
Cc1cc(C(=O)NCc2cccc(C(F)(F)F)c2C)cc(NC(=O)C(C)C)n1 [Example 879, 2-isobutyramido-6-methyl-N-(2-methyl-3-(trifluoromethyl)benzyl)isonicotinamide]
Cc1cc(C(=O)NCc2ccc(OCC(F)F)c(C)c2)cc(NC(=O)C(C)C)n1 [Example 994, N-(4-(2,2-difluoroethoxy)-3-methylbenzyl)-2-isobutyramido-6-methylisonicotinamide]
O=C(NCc1ccc(OCC(F)(F)F)nc1N1CCCCC1)c1ccnc(NC(=O)C2CC2)c1 [Example 304, 2-(cyclopropanecarboxamido)-N-((2-(piperidin-1-yl)-6-(2,2,2-trifluoroethoxy)pyridin-3-yl)methyl)isonicotinamide]
CCc1cc(C(C)NC(=O)c2cc(C)nc(NC(=O)C(C)C)c2)cnc1OCC(F)F (single isomer, unassigned) [Example 893, N-(1-(6-(2,2-difluoroethoxy)-5-ethylpyridin-3-yl)ethyl)-2-isobutyramido-6-methylisonicotinamide]
CC(=O)Nc1cc(C(=O)NCc2ccc(OCC(F)F)c(C)c2)ccn1 [Example 988, 2-acetamido-N-(4-(2,2-difluoroethoxy)-3-methylbenzyl)isonicotinamide]
CC(C)C(=O)Nc1cc(C(=O)NC(C)c2ccc(OCC(F)(F)C(F)F)nc2)ccn1 (single isomer, unassigned) [Example 654, 2-isobutyramido-N-(1-(6-(2,2,3,3-tetrafluoropropoxy)pyridin-3-yl)ethyl)isonicotinamide]
